According to ChEMBL document CHEMBL5126605, “Nucleic-Acid-Based Targeted Degradation in Drug Discovery” (J Med Chem, 2022):

What was measured:
[1] = RIBOTAC activity at Pre-miR-21 RNA/RNase L in human MDA-MB-231 cells assessed as decrease in mature miR-21 levels by RT-qPCR analysis; assay type: cell-based
Huntingtin [2] = target: T1, Huntingtin (Homo sapiens, UniProt P42858); assay: Induction of human HTT degradation in human SH-SY5Y cells assessed as decrease in HTT-transcript levels at 125 nM; assay type: cell-based; set-up: scale not given: the % may be the effect or the level left
T1 sequence (P42858 whole entry): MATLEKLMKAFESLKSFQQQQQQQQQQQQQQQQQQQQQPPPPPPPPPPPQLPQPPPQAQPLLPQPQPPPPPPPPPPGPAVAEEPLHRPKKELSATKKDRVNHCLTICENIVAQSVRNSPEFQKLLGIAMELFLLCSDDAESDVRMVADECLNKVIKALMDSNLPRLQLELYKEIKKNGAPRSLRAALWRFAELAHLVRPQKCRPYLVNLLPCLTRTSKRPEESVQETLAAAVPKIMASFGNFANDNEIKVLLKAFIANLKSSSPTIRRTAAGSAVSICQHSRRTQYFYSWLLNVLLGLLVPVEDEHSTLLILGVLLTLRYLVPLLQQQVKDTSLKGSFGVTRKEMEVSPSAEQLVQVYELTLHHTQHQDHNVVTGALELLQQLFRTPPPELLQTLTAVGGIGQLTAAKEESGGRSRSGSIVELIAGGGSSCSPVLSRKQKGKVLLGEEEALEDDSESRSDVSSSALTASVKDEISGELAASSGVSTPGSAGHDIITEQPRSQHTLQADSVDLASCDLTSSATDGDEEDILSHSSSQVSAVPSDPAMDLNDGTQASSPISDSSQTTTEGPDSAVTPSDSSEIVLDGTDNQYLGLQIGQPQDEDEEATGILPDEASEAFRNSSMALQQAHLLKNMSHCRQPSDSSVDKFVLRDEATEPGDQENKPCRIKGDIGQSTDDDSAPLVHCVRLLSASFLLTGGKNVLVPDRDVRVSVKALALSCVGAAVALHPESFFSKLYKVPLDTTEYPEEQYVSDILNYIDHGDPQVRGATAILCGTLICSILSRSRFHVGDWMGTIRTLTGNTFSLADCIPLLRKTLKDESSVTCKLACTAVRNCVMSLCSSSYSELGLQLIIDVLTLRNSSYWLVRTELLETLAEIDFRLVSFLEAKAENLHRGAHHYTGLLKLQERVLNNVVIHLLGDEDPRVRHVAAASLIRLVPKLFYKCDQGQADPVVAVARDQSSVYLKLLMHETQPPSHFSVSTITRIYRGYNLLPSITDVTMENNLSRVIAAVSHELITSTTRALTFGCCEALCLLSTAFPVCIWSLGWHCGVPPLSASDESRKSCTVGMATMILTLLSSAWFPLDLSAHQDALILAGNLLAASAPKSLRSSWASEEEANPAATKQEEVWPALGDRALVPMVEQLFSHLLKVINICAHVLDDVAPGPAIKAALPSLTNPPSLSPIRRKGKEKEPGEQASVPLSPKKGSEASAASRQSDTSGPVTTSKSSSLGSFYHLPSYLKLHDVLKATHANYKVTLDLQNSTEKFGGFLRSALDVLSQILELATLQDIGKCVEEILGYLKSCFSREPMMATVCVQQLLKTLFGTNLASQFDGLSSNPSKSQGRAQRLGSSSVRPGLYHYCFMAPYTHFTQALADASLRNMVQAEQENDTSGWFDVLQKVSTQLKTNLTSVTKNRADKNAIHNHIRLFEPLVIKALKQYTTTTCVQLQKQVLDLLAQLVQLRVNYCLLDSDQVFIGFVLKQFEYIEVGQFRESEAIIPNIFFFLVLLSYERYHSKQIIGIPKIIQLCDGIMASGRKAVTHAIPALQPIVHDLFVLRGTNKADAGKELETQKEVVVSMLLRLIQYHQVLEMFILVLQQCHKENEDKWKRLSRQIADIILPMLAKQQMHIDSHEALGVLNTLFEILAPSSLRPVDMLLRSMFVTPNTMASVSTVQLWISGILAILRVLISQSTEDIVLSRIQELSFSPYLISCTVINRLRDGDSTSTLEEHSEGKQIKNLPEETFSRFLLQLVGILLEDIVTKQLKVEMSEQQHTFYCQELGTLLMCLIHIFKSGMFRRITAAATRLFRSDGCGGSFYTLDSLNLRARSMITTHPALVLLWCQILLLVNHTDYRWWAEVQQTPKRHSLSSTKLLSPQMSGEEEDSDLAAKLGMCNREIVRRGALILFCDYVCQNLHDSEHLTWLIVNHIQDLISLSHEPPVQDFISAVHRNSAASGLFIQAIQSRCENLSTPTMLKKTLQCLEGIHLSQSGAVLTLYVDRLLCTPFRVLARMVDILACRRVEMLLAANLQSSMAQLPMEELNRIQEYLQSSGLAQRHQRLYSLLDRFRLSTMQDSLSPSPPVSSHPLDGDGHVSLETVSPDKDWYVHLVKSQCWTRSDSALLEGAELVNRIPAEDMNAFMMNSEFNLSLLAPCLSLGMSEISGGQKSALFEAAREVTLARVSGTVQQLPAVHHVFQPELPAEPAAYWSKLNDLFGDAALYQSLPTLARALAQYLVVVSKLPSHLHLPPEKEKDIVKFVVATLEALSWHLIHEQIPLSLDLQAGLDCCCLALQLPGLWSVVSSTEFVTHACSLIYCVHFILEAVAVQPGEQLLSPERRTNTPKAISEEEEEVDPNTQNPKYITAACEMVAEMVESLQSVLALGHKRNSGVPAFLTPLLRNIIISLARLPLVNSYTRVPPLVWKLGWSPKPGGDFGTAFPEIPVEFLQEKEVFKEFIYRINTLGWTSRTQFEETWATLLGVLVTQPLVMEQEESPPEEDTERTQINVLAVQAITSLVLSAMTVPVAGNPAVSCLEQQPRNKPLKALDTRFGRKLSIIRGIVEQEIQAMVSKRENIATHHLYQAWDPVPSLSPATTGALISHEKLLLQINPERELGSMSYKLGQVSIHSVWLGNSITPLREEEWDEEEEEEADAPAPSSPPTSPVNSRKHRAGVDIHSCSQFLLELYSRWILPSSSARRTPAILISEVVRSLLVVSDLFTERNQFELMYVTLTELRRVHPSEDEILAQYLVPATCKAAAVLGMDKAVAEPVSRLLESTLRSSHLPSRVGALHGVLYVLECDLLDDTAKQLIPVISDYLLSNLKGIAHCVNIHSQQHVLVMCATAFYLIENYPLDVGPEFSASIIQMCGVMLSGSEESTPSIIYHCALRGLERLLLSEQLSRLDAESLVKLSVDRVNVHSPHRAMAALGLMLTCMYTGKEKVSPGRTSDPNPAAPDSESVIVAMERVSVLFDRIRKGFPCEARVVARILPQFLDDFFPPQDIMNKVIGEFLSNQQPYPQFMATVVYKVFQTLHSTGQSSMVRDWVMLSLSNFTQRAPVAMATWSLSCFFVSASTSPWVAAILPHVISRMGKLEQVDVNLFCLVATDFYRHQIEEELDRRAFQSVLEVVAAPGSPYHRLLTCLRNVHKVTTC

Huntingtin [3] = target: T1, Huntingtin; assay: Induction of human HTT degradation in human SH-SY5Y cells assessed as decrease in normal HTT protein levels at 125 nM by Western blot analysis; assay type: cell-based; set-up: scale not given: the % may be the effect or the level left
Huntingtin [4] = target: T1, Huntingtin; assay: Inhibition of HTT (unknown origin)
MDA-MB-231 [5] = assay: RIBOTAC activity at Pre-miR-21 RNA/RNase L in human MDA-MB-231 cells assessed as decrease in mature miR-21 levels at 0.2 uM by RT-qPCR analysis; assay type: cell-based; set-up: scale not given: the % may be the effect or the level left
MDA-MB-231 [6] = assay: Potency index, ratio of RIBOTAC activity of test compound to RIBOTAC activity of Dovitinib at Pre-miR-21 RNA/RNase L in human MDA-MB-231 cells assessed as decrease in mature miR-21 levels by RT-qPCR analysis; assay type: cell-based
[7] = Binding affinity to Cy5-labeled SARS-CoV-2 Attenuator hairpin RNA incubated for 20 mins by microscale thermophoresis analysis; set-up: species or system Severe acute respiratory syndrome coronavirus 2
[8] = target: T2, von Hippel-Lindau disease tumor suppressor/Bromodomain-containing protein 4 (Homo sapiens, UniProt O60885+P40337); assay: PROTAC activity at VHL/BRD4 in human MCF7 cells assessed as BRD4 degradation measured after 24 hrs by Western blot analysis; assay type: cell-based
T2 sequence (P40337 whole entry, looked up, other chains not shown): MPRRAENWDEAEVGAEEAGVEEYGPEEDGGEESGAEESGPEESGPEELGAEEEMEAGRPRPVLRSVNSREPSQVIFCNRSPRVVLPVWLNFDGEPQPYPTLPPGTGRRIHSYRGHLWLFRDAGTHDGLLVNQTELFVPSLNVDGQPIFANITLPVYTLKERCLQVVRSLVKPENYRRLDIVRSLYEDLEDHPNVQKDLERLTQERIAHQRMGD

[9] = target: T2, von Hippel-Lindau disease tumor suppressor/Bromodomain-containing protein 4; assay: PROTAC activity at VHL/BRD4 in human MCF7 cells assessed as BRD4 degradation by measuring maximum efficacy at 50 nM measured after 24 hrs by Western blot analysis relative to control; assay type: cell-based
MCF7 = assay: Antitumor activity human MCF7 cells xenografted in nude mouse assessed as tumor growth inhibition at 10 mg/kg, iv administered every other day for 21 days; assay type: functional; conditions: MCF7, 504 h, time 21 day, read-out: TGI
[10] = Binding affinity to 5' Cy5 end-labeled DNA hairpin (unknown origin) incubated for 30 mins in the presence of RNase L by microscale thermophoresis analysis
[11] = Binding affinity to 5' Cy5-labeled Pre-miR-210 RNA (unknown origin) incubated for 30 mins in the presence of RNase L by microscale thermophoresis analysis
[12] = Selectivity index, ratio of Kd for binding affinity to 5' Cy5-labeled microRNA-210 hairpin precursor (unknown origin) to Kd for binding affinity to 5' Cy5 end-labeled DNA hairpin (unknown origin) incubated for 30 mins in the presence of RNase L by microscale thermophoresis analysis
MDA-MB-231 [13] = assay: RIBOTAC activity at Pre-miR-21 RNA/RNase L in human MDA-MB-231 cells assessed as decrease in mature miR-21 levels at 5 uM by RT-qPCR analysis; assay type: cell-based; set-up: scale not given: the % may be the effect or the level left

CCCN(CC(=O)N(CCC)CC(=O)N(CCC)CC(=O)N(CC(=O)NCCOCCOCCOCCOc1ccc(/C=C2\SC(Nc3ccccc3)=C(C(=O)OCC)C2=O)cc1O)Cc1cn(CCCNC(=O)CCCOc2ccc(-c3nc4ccc(-c5ccc(N6CCN(C)CC6)cc5)cc4[nH]3)cc2)nn1)C(=O)CN(Cc1cn(CCCNC(=O)CCCOc2ccc(-c3nc4cc(-c5ccc(N6CCN(C)CC6)cc5)ccc4[nH]3)cc2)nn1)C(C)=O
IC50 [1]: 50 nM

CC1(C)CC(Oc2ccc(-c3ccc(-c4cn[nH]c4)cc3O)nn2)CC(C)(C)N1
Activity (Huntingtin [2]): 95% | Activity (Huntingtin [3]): 53%

CCN1CCC(c2cc(C)c3nc(-c4ccc5nn(C)cc5c4)cc(=O)n3c2)CC1
IC50 (Huntingtin [4]): 80 nM

CC1(C)CC(Oc2ccc(-c3ccc(-c4ccnc(O)c4)cc3O)nn2)CC(C)(C)N1
IC50 (Huntingtin [4]): 40 nM

CCOC(=O)C1=C(Nc2ccccc2)S/C(=C\c2ccc(OCCOCCOCCOCCNC(=O)NCCN3CCN(c4ccc5nc(-c6c(N)c7c(F)cccc7[nH]c6=O)[nH]c5c4)CC3)c(O)c2)C1=O
Activity (MDA-MB-231 [5]): 30% | Ratio (MDA-MB-231 [6]): 5

CCN1CCC(c2cc3c(F)cc(-c4cc(C)c5nc(C)cn5n4)cc3nn2)CC1
IC50 (Huntingtin [4]): 8 nM

CNc1nc(Nc2cccc(C(=O)O)c2)nc2ccccc12
Kd [7]: 11 nM

Cc1ncsc1-c1ccc([C@H](C)NC(=O)[C@@H]2C[C@@H](O)CN2C(=O)[C@H](NC(=O)COCCOCCOCCNC(=O)C[C@@H]2N=C(c3ccc(Cl)cc3)c3c(sc(C)c3C)-n3c(C)nnc32)C(C)(C)C)cc1
EC50 [8]: 13 nM | Emax [9]: > 90% | inhibition in vivo at 10 mg/kg (MCF7): 59.8%

CN1CCN(c2ccc3nc(-c4ccc5[nH]c(-c6cccc(OCCCC(=O)NCCCN=[N+]=[N-])c6)nc5c4)[nH]c3c2)CC1
Kd [10]: 620 nM | Kd [11]: 160 nM | Ratio [12]: 5

CN1CCN(c2ccc3nc(-c4ccc5[nH]c(-c6cccc(OCCCC(=O)NCCCOCC(O)COP(=O)(O)O[C@@H]7[C@H](O)[C@@H](COP(=O)(O)O[C@@H]8[C@H](O)[C@@H](COP(=O)(O)O[C@@H]9[C@H](O)[C@@H](COP(=O)(O)O[C@@H]%10[C@H](O)[C@@H](COP(=O)(O)O)O[C@H]%10n%10cnc%11c(N)ncnc%11%10)O[C@H]9n9cnc%10c(N)ncnc%109)O[C@H]8n8cnc9c(N)ncnc98)O[C@H]7n7cnc8c(N)ncnc87)c6)nc5c4)[nH]c3c2)CC1 (some centres not stated)
Kd [11]: 340 nM

CN1CCN(c2ccc3nc(-c4c(N)c5c(F)cccc5[nH]c4=O)[nH]c3c2)CC1
Activity (MDA-MB-231 [13]): 30%
